The test system of the assay is Rabies virus. Format: cell-based.

The record followed here is US9919034B2, “Methods of treating and prophylactically protecting mammalian patients infected by viruses classified in Baltimore group V” (priority 2014, dated 2018).

Consider ranpirnase, for which the “activity against rabies (SI, FIG. 1)” value is recorded as “extraordinarily active”.
